The values below come from publication PMC10313808, “Lipoxygenase inhibitory synthetic derivatives of methyl gallate regulate gene expressions of COX-2 and cytokines to reduce animal model arthritis” (Scientific Reports, 2023).

The subject of test [1] is FCA-induced arthritis. The note with it: FCA rats, serum, 10 mg.kg^−1 oral. The procedure:
(§1) Chronic inflammation induced by Freund's Complete Adjuvant contains a suspension of heat-killed Mycobacterium tuberculosis in the vehicle (Chondrex, Labex Corporation). 100 μL of FCA (10 mg/mL) was injected intradermally to the left-hand paw of SD rats[42]. […] Induction of inflammation became chronic by 9–12 days and then rats were divided into 7 groups having 6 rats in each group. Everything possible was done to minimize the suffering of experimental animals. Minimum number of rats only were drafted to generate reliable data. 42 rats were randomly allocated into seven groups (6 × 7).
(§2) Group I (n = 6) served as normal rats that received an equal volume of vehicle control. Group II (n = 6) was arthritic model control treated with vehicle only. Group III (n = 6) was arthritic control which received the diclofenac (10 mg.kg^–1). Groups IV (n = 6), V (n = 6), VI (n = 6) and VII (n = 6) were treated with a low and high dose of methyl gallate (20 mg.kg^–1, 40 mg.kg^–1) and MGSD 1 (1 mg.kg^–1, 10 mg.kg^–1). The drugs were orally administered through oral gavage daily in PBS vehicle for 28 days.
(§3) Blood was drawn from jugular vein[43] and collected in heparinized tubes and used for further analysis. By using Horiba 5-part hematology analyzer the blood parameters like RBC, WBC, neutrophil and hemoglobin were analyzed. Serum parameters were analyzed using Stat Fax autoanalyzer. Serum glutamic pyruvic transaminase (SGPT), serum glutamic oxaloacetic transaminase (SGOT) and alkaline phosphatase (ALP) were determined using standard diagnostic kits (Proton, Accurex).

A short description of test [2]: FCA-induced arthritis: body weight measurement. It is filed as in vivo, Sprague–Dawley (SD) rats. The note with it: FCA rats, 10 mg.kg^−1 oral. On the procedure: as §1, §2
The bodyweight of the animals was measured every day after the commencement of the experiment till the end (28th day). The weight change was calculated using the formula: Weightchange%=Wt-Wo/[…], where Wt is the weight of the animal at time t
Wo is the weight of the animal on the initial day.

For test [3], the system named is FCA-induced arthritis. The test can be described thus: FCA-induced arthritis: haematological parameters. It is filed as in vivo, Sprague–Dawley (SD) rats. The note with it: FCA rats, 10 mg.kg^−1 oral. On the procedure: as §1, §2, §3
Test [4] concerns FCA-induced arthritis. The test can be described thus: FCA-induced arthritis: hind paw volume. It is filed as in vivo, Sprague–Dawley (SD) rats. The note with it: FCA rats, 10 mg.kg^−1 oral. The procedure: as §1, §2
By a plethysmometer the rat hind paw volume was measured from the initial day to final day (28th day) with successive intervals of 9 days, before and after FCA injection. The inhibition was calculated by the formula given below. Percentageinhibition=1-Meanchangesinpawvolumeoftreatedrat/Meanchangesinpawvolumeofuntreatedrat×100.

For test [5], the system named is FCA-induced arthritis. The test can be described thus: FCA-induced arthritis: organ index (liver, spleen). In kind it is in vivo, Sprague–Dawley (SD) rats. The note with it: FCA rats, 10 mg.kg^−1 oral, end of experiment. The procedure:
as §1, §2
At the end of the experiments, animals were euthanized using ketamine injection. The liver and spleen were removed at the end of the experiment and weighed. The index of the organs was expressed as the percentage (%) wet weight of organ versus body weight. The organ indexes were calculated by using the following formula Organindex=Weightoforgang/Bodyweightg×100.

For test [6], the system named is ankle joints, liver, spleen, and thymus. The test can be described thus: FCA-induced arthritis: histological analysis. In kind it is in vivo, Sprague–Dawley (SD) rats. The note with it: FCA rats. The procedure:
The animals used for the FCA induced arthritis were euthanized at the end of the experiment and the ankle joints were separated from the hind paw and fixed in 10% buffered formalin. Similarly, liver, spleen, and thymus were also dissected carefully and immersed in fixative, and after 24 h each specimen were decalcified in 5% nitric acid, followed by embedding in paraffin wax and 4 µm thickness sections were prepared. These prepared sections were then mounted and stained with hematoxylin and[…] under brightfield compound binocular research microscope at 100X and 400X magnification and inflammation was graded.

The target in test [7] is T1, Lipoxidase from Glycine max (15- LOX) (Glycine max, UniProt P08170).
T1 construct: purchased Sigma (Sigma-Aldrich, UK)
T1 sequence (P08170 1-839): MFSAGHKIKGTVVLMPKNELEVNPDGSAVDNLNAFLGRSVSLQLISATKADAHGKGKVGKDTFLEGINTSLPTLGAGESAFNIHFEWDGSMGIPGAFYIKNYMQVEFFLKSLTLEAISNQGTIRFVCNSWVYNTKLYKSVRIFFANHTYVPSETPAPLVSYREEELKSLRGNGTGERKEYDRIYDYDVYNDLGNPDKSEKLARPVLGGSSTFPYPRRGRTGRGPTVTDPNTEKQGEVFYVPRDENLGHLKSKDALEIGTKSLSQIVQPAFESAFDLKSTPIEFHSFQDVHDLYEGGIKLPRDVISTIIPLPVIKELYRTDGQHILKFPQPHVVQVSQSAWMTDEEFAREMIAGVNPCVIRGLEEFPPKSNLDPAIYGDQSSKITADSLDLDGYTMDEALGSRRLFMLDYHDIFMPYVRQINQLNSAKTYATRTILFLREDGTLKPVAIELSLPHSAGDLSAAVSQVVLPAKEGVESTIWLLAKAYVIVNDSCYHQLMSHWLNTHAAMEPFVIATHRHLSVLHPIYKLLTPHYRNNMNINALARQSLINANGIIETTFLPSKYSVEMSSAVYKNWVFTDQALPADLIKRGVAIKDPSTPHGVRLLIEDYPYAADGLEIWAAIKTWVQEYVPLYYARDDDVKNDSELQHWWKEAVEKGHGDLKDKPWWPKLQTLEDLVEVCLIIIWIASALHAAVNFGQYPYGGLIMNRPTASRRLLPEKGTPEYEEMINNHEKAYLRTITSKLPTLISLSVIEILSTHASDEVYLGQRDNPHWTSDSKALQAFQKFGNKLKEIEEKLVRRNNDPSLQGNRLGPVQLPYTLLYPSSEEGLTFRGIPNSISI
The test can be described thus: Michaelis–Menten enzyme kinetics (Lineweaver-Burk). It is filed as biochemical. The settings on record: for IC50: Cheng–Prusoff from Ki; for Ki: linoleic acid substrate, competitive. On the procedure:
To identify the mode of inhibition, enzyme kinetics assay was performed with MGSDs. For the kinetic analysis different substrate concentrations of 18, 27, 36, 45, 54, 63 µM were prepared in 0.2 mM borate buffer (H 9)[16]. The assay mixture was made of 50 µL of LOX, 50 µL of the test solution and different concentrations of the substrate. The final volume was made upto 2 mL with corresponding borate buffer quantity. The activity of LOX was measured by the formation of […], which was monitored at 234 nm on spectrophotometer, (HITACHI U 2900, Japan). The reaction was measured at a time span of 300 s. The same experiment was repeated in the presence of 0.1, 0.08 and 0.06 μM concentration of MGSDs. The Line Weaver-Burk plot was constructed and Michaelis–Menten constant (Km) and Maximal Velocity (Vmax) were determined from the plot. From the Km and Vmax obtained, the inhibitor constant, Ki was calculated using the following equation derived from the Michaelis–Menten Equation: Km′=Km1+I0/Ki. The IC50was calculated using the Cheng–Prusoff equation, Ki=IC50/1+S/Km.

Test [8] concerns the target T1, Lipoxidase from Glycine max (15- LOX). The test can be described thus: In-vitro LOX enzyme inhibition assay (spectrophotometric, 234 nm). In kind it is biochemical. The note with it: 20 μM compound. On the procedure:
The LOX inhibition assays were performed with MGSDs. The inhibitory activity was measured by a modified spectrophotometric method[16],[39]. The plant LOX pathway is in many respects equivalent to the ‘arachidonic acid cascades’ in animals. For this reason, the in vitro inhibition of LOX constitutes a good model for the screening of compounds with anti-inflammatory potential[40],[41]. LOX (Lipoxidase from Glycine max (15- LOX); EC 1.13.11.12) type I-B (Soybean), and linoleic acid were purchased from Sigma (Sigma-Aldrich, UK) and used without further purification. Enzyme solution of 1.03 µM was prepared in 0.2 mM borate buffer, pH 8.5. The substrate, linoleic acid solution of 0.3 mM was also prepared in the borate buffer at the same pH. […] The final concentration of MGSDs used for the analysis was 20 µM. The assay mixture was made of 50 µL of LOX, 50 µL of the test solution and 360 µL of the substrate. The final volume was made up to 2 mL with corresponding borate buffer quantity. The activity of LOX was measured on the formation of […], which was monitored at 234 nm on spectrophotometer, (HITACHI U 2900, Japan). The same procedure was repeated with triplicate for the confirmation of LOX inhibitory activity[16],[39].

In another test the target is T2, LOX (Glycine max, UniProt P08170).
T2 construct: purchased Sigma (Sigma-Aldrich, UK)
T2 sequence (P08170 1-839): T1 sequence (P08170 1-839)
The test can be described thus: Fluorescence quenching studies. In kind it is binding. The note with it: 296 K, pH 9; for Kd: read-out: Binding constant (K) (converted); for Quenching constant (Ksv): Stern–Volmer. From the text: To analyze the type of mechanism, the data of fluorescence of LOX was plotted, as relative fluorescence intensity (F0/F), against MGSDs. Here F and F0 are the fluorescence intensity in the presence and absence of MGSDs respectively. The Stern–Volmer constants were obtained from the plot by linear regression using the expression: F0/F=1+KsvQ.
Ksv is the Stern–Volmer constant and [Q] is the respective concentration of derivatives. Ksv which depicts the binding affinity between the fluorophore (protein) and quencher (ligand), were obtained from the slopes of the plot (Supplementary Fig. 15). […] The Fluorescence quenching data provided information about the binding constant (K), the number of binding sites (n), and the values could be arrived by applying the equation. Log F0-F/F=log K+nlogQ.
The Fluoromax-4 spectrophotometer (Spectra-NanoLED source 278) was used for studying fluorescence quenching of the compound. Bandwidth set at 5 nm for both excitation and emission spectra. The wavelength was set for excitation at 280 nm and the emission was recorded at 290–450 nm using 1.0 cm cell at 296 K temperature. The LOX with a concentration of 7 μM, dissolved in borate buffer at pH 9 and ligands at the concentrations of 35, 70, 105, 140, 175, 210, 245 and 280 μM were used for the experiment.

One may read the IC50 as the concentration needed to halve the response being measured. Lower therefore signals higher potency. The Ki is the dissociation constant of the complex between target and ligand, obtained from inhibition or displacement. Low values mean a stronger hold on the target, high ones a looser hold on the target. As a reminder, the inhibition is the percentage by which the read-out fell short of the control. A lower inhibition goes with a response near the control.

On to `O=C(O)Cc1ccccc1Nc1c(Cl)cccc1Cl` [Diclofenac], for which, in the test on FCA-induced arthritis [1], the SGOT stood at 210 ± 1.73 IU/L and the SGPT is recorded as 91 ± 1.20 IU/L. In test [2] (9th day), the “Percentage of body weight (Mean ± SEM) 9th day” value stood at 9.9 ± 0.07%. Moreover, in [2] (18th day), the “Percentage of body weight (Mean ± SEM) 18th day” value is 36.55 ± 1.10%. In addition, the “Percentage of body weight (Mean ± SEM) 28th day” value in test [2] (28th day) was determined as 41.52 ± 1.36%. Further, in the test on FCA-induced arthritis [3], the Hb worked out at 14.3 ± 0.4 g/dL, the Lymphocyte worked out at 73.2 ± 1.64%, the Neutro phil amounted to 11.5 ± 0.15% and the RBC is reported as 7.92 ± 0.18^# 10^6/mm^3. In addition, in the test with FCA-induced arthritis [3], the WBC is 9.25 ± 0.10^# 10^3/mm^3. Moreover, the “Percentage of inhibition (paw oedema)” value with FCA-induced arthritis [4] is on record as 59%. Moreover, the “Paw volume (mL) (mean ± SEM) 9th day” value with FCA-induced arthritis [4] (9th day) was 1.44 ± 0.16 mL. In addition, in the test with FCA-induced arthritis [4] (18th day), the “Paw volume (mL) (mean ± SEM) 18th day” value is 0.8 ± 0.22 mL. Moreover, in the test with FCA-induced arthritis [4] (28th day), the “Paw volume (mL) (mean ± SEM) 28th day” value is given as 0.73 ± 0.08 mL. Besides, the “Paw volume (mL) (mean ± SEM) Initial day” value in the test with FCA-induced arthritis [4] (initial day) was determined as 0.56 ± 0.05 mL. For the same compound, the “Percentage of inhibition (paw oedema)” value with FCA-induced arthritis [4] (listed as diclofenac) stood at 59%. For the same compound, in the test on FCA-induced arthritis [5], the “Organ index (%) Liver” value is on record as 3.18 ± 0.11% and the “Organ index (%) Spleen” value came out at 0.21 ± 0.01%. Besides, in [6] (10 mg.kg^-1), the “Histology of ankle joints” value was “synovial joint was seen free of infiltration and oedema”. In [6] (dose not stated), the Histology of liver entry was “hepatocyte arrays and central sinusoid area were seen to regain normalcy and a few necrotic cells were still visible”; the Histology of spleen result is recorded as “periarteriolar lymphoid sheath regained normalcy”. Besides, the Histology of thymus entry in test [6] (methyl gallate high dose) is reported as “reduction in the number of neutrophils”.
In test [7], `O=C(O)COc1cc(C(=O)O)cc(O)c1OCC(=O)O` [MGSD 2, 2,2′-((5-carboxy-3-hydroxy-1,2-phenylene)bis (oxy))diacetic acid] registered an IC50 of 340 nM and a Ki of 100 nM. This compound registered an inhibition at 20 µM in test [8] of 68 ± 4.32%. In addition, on LOX, the Kd was 439000 nM and the “Quenching constant (Ksv)” value came out at 6300 M⁻¹.
For `O=C(O)COc1cc(C(=O)O)cc(O)c1O` [MGSD 3, (3-(carboxymethoxy)-4,5-dihydroxybenzoic acid], half-maximal inhibition in test [7] (abstract) (IC50) was put at 226 nM. In addition, the Ki in [7] worked out at 60 nM. In test [8], this compound returned an inhibition at 20 µM of 65 ± 2.65%. For the same compound, on LOX, the Kd was 485000 nM and the “Quenching constant (Ksv)” value was 7800 M⁻¹.
